Values joined by “and” are separate entries in the source; they are usually repeats but may differ in a detail not shown here. Equal entries are not always repeated. Where two headings read alike, the source gives them in different places.
Experiments:
Format in all cases: in vivo
[1] = tested on: APESV; experiment: Greenhouse postemergence herbicidal activity on APESV, 20 DAT; conditions: post-emergence, Table 8, read-out: % activity, solo application (I.A)
[2] = tested on: Polygonum aviculare; experiment: Greenhouse postemergence herbicidal activity on POLAV, 20 DAT; conditions: Polygonum aviculare, post-emergence, 480 h, read-out: % activity, solo (I.A)
Protocol: (§1) For the post emergence treatment, the plants were first grown to the 2 leaf station (GS 12) and applied at GS 12-19 depending on the species. The herbicidal compositions were suspended or emulsified in water as distribution medium and sprayed using finely distributing nozzles.
(§2) The plants have been cultivated due to their individual requirements at 10 to 25° C. and. 20 to 35° C. The plants were irrigated due to their necessity.
(§3) The respective stated components A), were formulated as a 5% by weight strength emulsion concentrate containing wettol EM 31 20% and Cyclohexanone 80%. The respective stated components B), were formulated as either emulsifiable concentrates (EC), soluble liquids (SL), suspension concentrates (SC) or soluble granules (SG) as indicated in the table below. Component A, component B and the solvent system are introduced into the spray liquor used for applying the active compound. In the examples, the solvent used was water containing 1% Dash (Agnique ME 181 37.5%, Lutensit A-EP 22.5%, and Oleic Acid 5%) and 2% ammonium suflate.
(§4) In the following experiments, the herbicidal activity for the individual herbicide compounds (solo and mixture applications), the herbicidal succession was assessed 20 days after treatment (DAT). The evaluation for the damage on undesired weeds caused by the chemical compositions was carried out using a scale from 0 to 100%, compared to the untreated control plants. Here, 0 means no damage and 100 means complete destruction of the plants. The plants used in the greenhouse experiments belonged to the following species:
(§5) The value E, which corresponds to the effect (in %) that is to be expected if the activity of the individual compounds is additive, was calculated using the method of S. R. Colby (1967) “Calculating synergistic and antagonistic responses of herbicide combinations”, Weeds 15, p. 22 ff. Colby calculation for 2 way mixtures:
(§6) where: • X=effect in percent using herbicide A at an application rate a; • Y=effect in percent using herbicide B at an application rate b; • E=expected effect (in %) of A+B at application rates a+b
(§7) If the value observed in this manner is higher than the value E calculated according to Colby, a synergistic effect is present.

[3] = tested on: Ipomoea hederacea; experiment: Greenhouse postemergence herbicidal activity on IPOHE, 20 DAT; conditions: for inhibition at 125 g/ha: 125 gai/ha
Protocol: as §1, §2, §3, §4, §5, §6, §7

[4] = tested on: Ambrosia elatior; experiment: Greenhouse postemergence herbicidal activity on AMBEL, 20 DAT; conditions: AMBEL, postemergence, 20 DAT
Protocol: as §1, §2, §3, §4, §5, §6, §7

[5] = tested on: Amaranthus palmeri; experiment: Greenhouse postemergence herbicidal activity on AMAPA, 20 DAT
Protocol: as §1, §2, §3, §4, §5, §6, §7

[6] = tested on: Galium aparine; experiment: Greenhouse postemergence herbicidal activity on GALAP, 20 DAT; conditions: Galium aparine, post-emergence; for inhibition at 31.25 g/ha: 31.25 gai/ha; for inhibition at 62.5 g/ha: 62.5 gai/ha; for inhibition at 125 g/ha: 125 gai/ha; for inhibition at 250 g/ha: 250 gai/ha
Protocol: as §1, §2, §3, §4, §5, §6, §7

[7] = tested on: AVEFA; experiment: Greenhouse postemergence herbicidal activity on AVEFA, 20 DAT; conditions: Avena fatua, post-emergence, Table 8, read-out: % activity, solo application (I.A)
[8] = tested on: Amaranthus retroflexus; experiment: Greenhouse postemergence herbicidal activity on AMARE, 20 DAT; conditions: AMARE, postemergence; for inhibition at 62.5 g/ha: 62.5 gai/ha
Protocol: as §1, §2, §3, §4, §5, §6, §7

[9] = Table 6, read-out: % activity, solo application (I.A)
[10] = 480 h, 20 DAT, read-out: % activity, solo (I.A)

## CC(C)c1noc2nc(C3CC3)cc(C(=O)O)c12 [(I.A)]
[1]; 15.6 gai/ha
  inhibition at 15.6 g/ha: 0%
[1]; 31.25 gai/ha
  inhibition at 31.25 g/ha: 0%
[1]; 62.5 gai/ha
  inhibition at 62.5 g/ha: 0%
[2]; 15.6 gai/ha
  inhibition at 15.6 g/ha: 10%
[2]; 31.25 gai/ha
  inhibition at 31.25 g/ha: 35%
[2]; 62.5 gai/ha
  inhibition at 62.5 g/ha: 50%
[2]; 125 gai/ha
  inhibition at 125 g/ha: 90%
[3]; 31.25 gai/ha, 20 DAT
  % activity, solo (I.A): 95%
[3]; 62.5 gai/ha, 20 DAT
  % activity, solo (I.A): 95%
[3]; Ipomoea hederacea, post-emergence, 31.25 gai/ha, Table 6, read-out: % activity, solo application (I.A)
  inhibition at 31.25 g/ha: 75%
[3]; Ipomoea hederacea, post-emergence, 31.25 gai/ha, Table 8, read-out: % activity, solo application (I.A)
  inhibition at 31.25 g/ha: 50%
[3]; Ipomoea hederacea, post-emergence, 62.5 gai/ha, Table 6, read-out: % activity, solo application (I.A)
  inhibition at 62.5 g/ha: 87%
[3]; Ipomoea hederacea, post-emergence, Table 6, read-out: % activity, solo application (I.A)
  inhibition at 125 g/ha: 98%
[3]; Ipomoea hederacea, post-emergence, 128 gai/ha, Table 6, read-out: % activity, solo application (I.A)
  inhibition at 128 g/ha: 98%
[3]; Ipomoea hederacea, post-emergence, 250 gai/ha, Table 6, read-out: % activity, solo application (I.A)
  inhibition at 250 g/ha: 99%
[3]; Ipomoea hederacea, post-emergence, 480 h, 15.6 gai/ha, 20 DAT, read-out: % activity, solo (I.A)
  inhibition at 15.6 g/ha: 65%
[3]; Ipomoea hederacea, post-emergence, 480 h, 31.25 gai/ha, 20 DAT, read-out: % activity, solo (I.A)
  inhibition at 31.25 g/ha: 75%
[3]; Ipomoea hederacea, post-emergence, 480 h, 62.5 gai/ha, 20 DAT, read-out: % activity, solo (I.A)
  inhibition at 62.5 g/ha: 87%
[3]; Ipomoea hederacea, post-emergence, 480 h, 20 DAT, read-out: % activity, solo (I.A)
  inhibition at 125 g/ha: 98%
[4]; 31.25 gai/ha
  % activity, solo (I.A): 50% and 25%
[4]; Ambrosia artemisiifolia, post-emergence, 480 h, 15.6 gai/ha, read-out: % activity, solo (I.A)
  inhibition at 15.6 g/ha: 0%
[4]; Ambrosia artemisiifolia, post-emergence, 480 h, 62.5 gai/ha, read-out: % activity, solo (I.A)
  inhibition at 62.5 g/ha: 70%
[5]; 62.5 gai/ha
  % activity, solo (I.A): 89%
[5]; Amaranthus palmeri, post-emergence, 480 h, 15.6 gai/ha, read-out: % activity, solo (I.A)
  inhibition at 15.6 g/ha: 5%
[5]; Amaranthus palmeri, post-emergence, 480 h, 31.25 gai/ha, read-out: % activity, solo (I.A)
  inhibition at 31.25 g/ha: 80%
[5]; Amaranthus palmeri, post-emergence, 480 h, 62.5 gai/ha, read-out: % activity, solo (I.A)
  inhibition at 62.5 g/ha: 80%
[6]; [9]
  inhibition at 31.25 g/ha: 43%
  inhibition at 62.5 g/ha: 60%
  inhibition at 125 g/ha: 73%
  inhibition at 250 g/ha: 95%
[6]; Table 8, read-out: % activity, solo application (I.A)
  inhibition at 62.5 g/ha: 45%
[6]; [10]
  inhibition at 31.25 g/ha: 43%
  inhibition at 62.5 g/ha: 60%
  inhibition at 125 g/ha: 73%
  inhibition at 250 g/ha: 95%
[7]; 15.6 gai/ha
  inhibition at 15.6 g/ha: 0%
[7]; 62.5 gai/ha
  inhibition at 62.5 g/ha: 20%
[8]; 31.25 gai/ha, 20 DAT
  % activity, solo (I.A): 58% and 78% and 80%
[8]; Amaranthus retroflexus, post-emergence, 480 h, 20 DAT, read-out: % activity, solo (I.A)
  inhibition at 62.5 g/ha: 94%
[8]; Amaranthus retroflexus, post-emergence, 480 h, 125 gai/ha, 20 DAT, read-out: % activity, solo (I.A)
  inhibition at 125 g/ha: 93%
[8]; Amaranthus retroflexus, post-emergence, 7.8 gai/ha, Table 8, read-out: % activity, solo application (I.A)
  inhibition at 7.8 g/ha: 0%
[8]; Amaranthus retroflexus, post-emergence, 15.6 gai/ha, Table 8, read-out: % activity, solo application (I.A)
  inhibition at 15.6 g/ha: 15%
[8]; Amaranthus retroflexus, post-emergence, 31.25 gai/ha, Table 6, read-out: % activity, solo application (I.A)
  inhibition at 31.25 g/ha: 65%
[8]; Amaranthus retroflexus, post-emergence, Table 8, read-out: % activity, solo application (I.A)
  inhibition at 62.5 g/ha: 85%
